# Assays:
# Experiment in all cases: preemergence treatment in the greenhouse, % damage
# Panic. virg. = type: in vivo
# Procedure, shortened: (§1)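 Sow shallow in sandy loam, spray actives (water vehicle) on soil at once for preemergence, irrigate, hood until rooting; or grow to 3–10 cm and spray unhooded for postemergence. Keep 4–6 weeks at 15–40 °C by species, then score damage 0–100.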
# Amar. retro. = type: in vivo
# Procedure, shortened: as §1
# Sida spin. = type: in vivo
# Procedure, shortened: as §1
# Echin. c.g. = type: in vivo
# Procedure, shortened: as §1
# Cenchr. ech. = type: in vivo
# Procedure, shortened: as §1
# Ipom. spp. = type: in vivo
# Procedure, shortened: as §1
# Solanum nigrum = type: in vivo
# Procedure, shortened: as §1
# Lept. spp. = type: in vivo
# Procedure, shortened: as §1
# Cyp. diff. = type: in vivo
# Procedure, shortened: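 Greenhouse herbicide test at rates in kg/ha a.i. Pre-em soil spray right after sowing, then irrigation and hooding; post-em on 3–10 cm plants. Rated 0–100 over 4–6 weeks.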
# Glyc. max = type: in vivo, Glycine max
# Procedure, shortened: as §1
# Gossyp. hirs. = type: in vivo, Gosspyium hirsutum
# Procedure, shortened: as §1
smiles,measurement,setting,value
"CCc1cccc(CC)c1N(COC)C(=O)CCl [bekannt, reference compound]",% damage,Panic. virg.; 0.25 kg/ha,30%
same,% damage,Panic. virg.; 0.5 kg/ha,45%
same,% damage,Panic. virg.; 1.0 kg/ha,92%
same,% damage,Panic. virg.; 2.0 kg/ha,100%
same,% damage,Amar. retro.; 0.25 kg/ha,68%
same,% damage,Amar. retro.; 0.5 kg/ha,81%
same,% damage,Amar. retro.; 1.0 kg/ha,88%
same,% damage,Amar. retro.; 2.0 kg/ha,92%
same,% damage,Sida spin.; 1.0 kg/ha,10%
same,% damage,Sida spin.; 2.0 kg/ha,70%
same,% damage,Echin. c.g.; 0.25 kg/ha,45%
same,% damage,Echin. c.g.; 0.5 kg/ha,75%
same,% damage,Echin. c.g.; 1.0 kg/ha,90%
same,% damage,Echin. c.g.; 2.0 kg/ha,95%
same,% damage,Cenchr. ech.; 0.25 kg/ha,92%
same,% damage,Cenchr. ech.; 0.5 kg/ha,95%
same,% damage,Cenchr. ech.; 1.0 kg/ha,100%
same,% damage,Cenchr. ech.; 2.0 kg/ha,100%
same,% damage,Ipom. spp.; 1.0 kg/ha,20%
same,% damage,Ipom. spp.; 2.0 kg/ha,30%
same,% damage,Solanum nigrum; 0.25 kg/ha,50%
same,% damage,Solanum nigrum; 0.5 kg/ha,73%
same,% damage,Solanum nigrum; 1.0 kg/ha,90%
same,% damage,Solanum nigrum; 2.0 kg/ha,90%
same,% damage,Lept. spp.; 0.25 kg/ha,100%
same,% damage,Lept. spp.; 0.5 kg/ha,100%
same,% damage,Lept. spp.; 1.0 kg/ha,100%
same,% damage,Lept. spp.; 2.0 kg/ha,100%
same,% damage,Cyp. diff.; 0.25 kg/ha,65%
same,% damage,Cyp. diff.; 0.5 kg/ha,70%
same,% damage,Cyp. diff.; 1.0 kg/ha,78%
same,% damage,Cyp. diff.; 2.0 kg/ha,100%
same,% damage,Glyc. max; 0.25 kg/ha,0%
same,% damage,Glyc. max; 0.5 kg/ha,0%
same,% damage,Glyc. max; 1.0 kg/ha,0%
same,% damage,Glyc. max; 2.0 kg/ha,0%
same,% damage,Gossyp. hirs.; 0.25 kg/ha,0%
same,% damage,Gossyp. hirs.; 0.5 kg/ha,6%
same,% damage,Gossyp. hirs.; 1.0 kg/ha,20%
same,% damage,Gossyp. hirs.; 2.0 kg/ha,45%

# From patent US4593104A, “2-halo-N-(azole-1-yl-methyl)-substituted acetanilides” (BASF Aktiengesellschaft, priority 1976, dated 1986)
